Experimental data: patent publication US20230339970A1, “CASEIN KINASE 1 DELTA MODULATORS” (priority 2020, published 2023)
Each block holds one compound with its values, some of them ahead of it.

What was measured:
[1] = biological target: T1, human CSNK1D (Homo sapiens, UniProt P48730); assay: Whole Cell nBRET CSNK1D Binding Assay; settings: living CHO cells stably expressing human CSNK1D tagged with nanoluciferase; NanoBret tracer 130 nM; 2 hours at 37 C
T1 construct: expressed in transfected cells

[2] = biological target: T2, human recombinant GST cleaved CSNK1D (Homo sapiens, UniProt P48730); assay: Purified Enzyme Assay (ADP-Glo CSNK1D Kinase Assay); format: biochemical; settings: 2 nM CSNK1D; peptide substrate 150 μM; ATP 20 μM; 45 minutes at room temperature
T2 construct: GST (cleaved yes); purchased University of Dundee clone DU 19064
In short: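 GST-cleaved human recombinant CSNK1D phosphorylates peptide PLSRTL-pS-VASLPGL with ATP; compounds added in dose-response, 45 min at room temperature. ADP formed measured by ADP-Glo luminescence and converted to percent activity.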

T2 sequence (P48730 whole entry): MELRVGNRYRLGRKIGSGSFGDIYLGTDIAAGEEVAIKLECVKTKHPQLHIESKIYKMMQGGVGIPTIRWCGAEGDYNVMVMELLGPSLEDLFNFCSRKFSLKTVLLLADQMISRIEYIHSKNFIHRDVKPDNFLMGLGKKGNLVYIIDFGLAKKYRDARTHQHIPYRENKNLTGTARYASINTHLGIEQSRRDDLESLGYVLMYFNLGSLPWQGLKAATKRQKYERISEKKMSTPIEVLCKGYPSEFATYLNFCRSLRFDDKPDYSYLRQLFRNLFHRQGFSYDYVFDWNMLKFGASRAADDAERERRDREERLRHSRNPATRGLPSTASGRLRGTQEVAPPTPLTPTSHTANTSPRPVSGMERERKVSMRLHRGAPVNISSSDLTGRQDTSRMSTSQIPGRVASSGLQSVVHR
T1 sequence (P48730 whole entry): as above

SMILES: Cc1n[nH]c2nccc(-c3c(-c4ccc(F)cc4)nn4c3COC(C(F)(F)F)C4)c12 (single isomer, unassigned) [Example 373, (*R)-2-(4-Fluorophenyl)-3-(3-methyl-1H-pyrazolo[3,4-b]pyridin-4-yl)-6-(trifluoromethyl)-6,7-dihydro-4H-pyrazolo[5,1-c][1,4]oxazine]
- IC50 [1]: > 10000 nM
- IC50 [2]: 306 nM

SMILES: Cc1cc(-c2c(-c3ccc(Cl)cc3)nn3c2COCC3)c2cn[nH]c2n1 [Example 68, 2-(4-Chlorophenyl)-3-(6-methyl-1H-pyrazolo[3,4-b]pyridin-4-yl)-6,7-dihydro-4H-pyrazolo[5,1-c][1,4]oxazine]
- IC50 [1]: 206 nM
- IC50 [2]: 27 nM

SMILES: Cc1cc(-c2c(-c3ccc(F)cc3)nn3c2[C@H]2CC[C@@H]3C2)c2cn[nH]c2n1 (single isomer, unassigned) [Example 365, (4*S,7*R)-2-(4-Fluorophenyl)-3-(6-methyl-1H-pyrazolo[3,4-b]pyridin-4-yl)-4,5,6,7-tetrahydro-4,7-methanopyrazolo[1,5-a]pyridine]
- IC50 [1]: 8 nM
- IC50 [2]: 1 nM

SMILES: Cc1nc(-c2nn3c(c2-c2ccnc4[nH]ncc24)COC(C)(C)C3)ccc1Cl [Example 163, 2-(5-Chloro-6-methylpyridin-2-yl)-6,6-dimethyl-3-(1H-pyrazolo[3,4-b]pyridin-4-yl)-6,7-dihydro-4H-pyrazolo[5,1-c][1,4]oxazine]
- IC50 [1]: 1920 nM
- IC50 [2]: 59 nM

SMILES: Cc1nc(-c2c(-c3ccc(F)cc3)nn3c2OCC(F)(F)C3)c2cn[nH]c2n1 [Example 469, 6,6-Difluoro-2-(4-fluorophenyl)-3-(6-methyl-1H-pyrazolo[3,4-d]pyrimidin-4-yl)-5,7-dihydropyrazolo[5,1-b][1,3]oxazine]
- IC50 [1]: 385 nM
- IC50 [2]: 28 nM

SMILES: CC1CCCc2c(-c3ccnc4[nH]ncc34)c(-c3ccc(F)cc3)nn21 (single isomer, unassigned) [Example 39, (*R)-4-[2-(4-Fluorophenyl)-7-methyl-4,5,6,7-tetrahydropyrazolo[1,5-a]pyridin-3-yl]-1H-pyrazolo[3,4-b]pyridine]
- IC50 [1]: 39 nM
- IC50 [2]: 4 nM

SMILES: C[C@@]1(C(F)(F)F)Cn2nc(-c3ccc(F)cn3)c(-c3ccn4nccc4c3)c2CO1 (single isomer, unassigned) [Example 415, (*S)-2-(5-Fluoropyridin-2-yl)-6-methyl-3-(pyrazolo[1,5-a]pyridin-5-yl)-6-(trifluoromethyl)-6,7-dihydro-4H-pyrazolo[5,1-c][1,4]oxazine]
- IC50 [1]: 3890 nM
- IC50 [2]: 264 nM

SMILES: Cc1cc(-c2c(-c3ccc(F)cc3)nn3c2CC2(CC2)C3)c2cn[nH]c2n1 [Example 248, 2-(4-Fluorophenyl)-3-(6-methyl-1H-pyrazolo[3,4-b]pyridin-4-yl)spiro[4,6-dihydropyrrolo[1,2-b]pyrazole-5,1′-cyclopropane]]
- IC50 [1]: 6 nM
- IC50 [2]: 2 nM

SMILES: Fc1ccc(-c2nn3c(c2-c2ccnc4[nH]ccc24)CCCC3)cc1 [Example 33, 4-[2-(4-Fluorophenyl)-4,5,6,7-tetrahydropyrazolo[1,5-a]pyridin-3-yl]-1H-pyrrolo[2,3-b]pyridine]
- IC50 [1]: 20 nM
- IC50 [2]: 4 nM

SMILES: Cc1cc(-c2c(-c3ccc(F)cc3)nn3c2OC[C@H](C)C3)c2cn[nH]c2n1 (single isomer, unassigned) [Example 194, (*R)-2-(4-Fluorophenyl)-6-methyl-3-(6-methyl-1H-pyrazolo[3,4-b]pyridin-4-yl)-6,7-dihydro-5H-pyrazolo[5,1-b][1,3]oxazine]
- IC50 [1]: 11 nM
- IC50 [2]: 1 nM

SMILES: Fc1ccc(-c2nn3c(c2-c2ccnc4[nH]ncc24)CO[C@H](C(F)(F)F)C3)cc1 [Example 100, (S)-2-(4-Fluorophenyl)-3-(1H-pyrazolo[3,4-b]pyridin-4-yl)-6-(trifluoromethyl)-6,7-dihydro-4H-pyrazolo[5,1-c][1,4]oxazine]
- IC50 [1]: 697 nM
- IC50 [2]: 55 nM

SMILES: Fc1ccc(-c2nn3c(c2-c2ccncc2)OCCC3)cc1 [Example 438, 2-(4-Fluorophenyl)-3-(4-pyridyl)-6,7-dihydro-5H-pyrazolo[5,1-b][1,3]oxazine]
- IC50 [1]: 113 nM
- IC50 [2]: 12 nM

SMILES: CC1(C)Cn2nc(-c3ccc(F)cn3)c(-c3ccn4nccc4c3)c2CO1 [Example 140, 2-(5-Fluoropyridin-2-yl)-6,6-dimethyl-3-(pyrazolo[1,5-a]pyridin-5-yl)-6,7-dihydro-4H-pyrazolo[5,1-c][1,4]oxazine]
- IC50 [1]: 122 nM
- IC50 [2]: 18 nM

Further lines, results first:

- IC50 [1]: 926 nM
- IC50 [2]: 38 nM
SMILES: C[C@H]1OCc2c(-c3ccnc4[nH]ncc34)c(-c3ccc(F)cn3)nn2[C@H]1C (single isomer, unassigned) [Example 116, (6*R,7*S)-2-(5-Fluoropyridin-2-yl)-6,7-dimethyl-3-(1H-pyrazolo[3,4-b]pyridin-4-yl)-6,7-dihydro-4H-pyrazolo[5,1-c][1,4]oxazine]

- IC50 [1]: 2300 nM
- IC50 [2]: 119 nM
SMILES: Cc1cnc(N)cc1-c1c(-c2ccc(F)cn2)nn2c1COC(C)(C)C2 [Example 378, 4-(2-(5-Fluoropyridin-2-yl)-6,6-dimethyl-6,7-dihydro-4H-pyrazolo[5,1-c][1,4]oxazin-3-yl)-5-methylpyridin-2-amine]

- IC50 [1]: 252 nM
- IC50 [2]: 54 nM
SMILES: Cc1cc(-c2c(-c3ccc(F)cn3)nn3c2CO[C@@](C)(C(F)(F)F)C3)c2cn[nH]c2n1 (single isomer, unassigned) [Example 180, (*R)-2-(5-Fluoropyridin-2-yl)-6-methyl-3-(6-methyl-1H-pyrazolo[3,4-b]pyridin-4-yl)-6-(trifluoromethyl)-6,7-dihydro-4H-pyrazolo[5,1-c][1,4]oxazine]

- IC50 [1]: 44 nM
- IC50 [2]: 3 nM
SMILES: C[C@@]1(C(F)(F)F)Cn2nc(-c3ccc(F)cn3)c(-c3ccnc4[nH]ncc34)c2CO1 (single isomer, unassigned) [Example 177, (*S)-2-(5-Fluoropyridin-2-yl)-6-methyl-3-(1H-pyrazolo[3,4-b]pyridin-4-yl)-6-(trifluoromethyl)-6,7-dihydro-4H-pyrazolo[5,1-c][1,4]oxazine]

- IC50 [1]: 330 nM
- IC50 [2]: 8 nM
SMILES: Cc1cc(-c2c(-c3ccc(F)cn3)nn3c2OCCC3)c2cn[nH]c2n1 [Example 187, 2-(5-Fluoropyridin-2-yl)-3-(6-methyl-1H-pyrazolo[3,4-b]pyridin-4-yl)-6,7-dihydro-5H-pyrazolo[5,1-b][1,3]oxazine]

- IC50 [1]: > 10000 nM
- IC50 [2]: 763 nM
SMILES: COC1(C)COCc2c(-c3ccnc4[nH]ncc34)c(-c3ccc(F)cn3)nn2C1 (single isomer, unassigned) [Example 486, (*R)-2-(5-Fluoropyridin-2-yl)-7-methoxy-7-methyl-3-(1H-pyrazolo[3,4-b]pyridin-4-yl)-7,8-dihydro-4H,6H-pyrazolo[5,1-c][1,4]oxazepine]

- IC50 [1]: 434 nM
- IC50 [2]: 41 nM
SMILES: Cc1cc(-c2c(-c3ccc(F)cn3)nn3c2C[C@H]2C[C@H]23)c2cn[nH]c2n1 [Example 27, (4aR,5aR)-2-(5-Fluoropyridin-2-yl)-3-(6-methyl-1H-pyrazolo[3,4-b]pyridin-4-yl)-4,4a,5,5a-tetrahydrocyclopropa[4,5]pyrrolo[1,2-b]pyrazole]

- IC50 [1]: 682 nM
- IC50 [2]: 36 nM
SMILES: Cc1nc2[nH]ncc2c(-c2c(-c3ccc(F)cn3)nn3c2CO[C@](C)(C(F)(F)F)C3)c1F (single isomer, unassigned) [Example 421, (*S)-3-(5-Fluoro-6-methyl-1H-pyrazolo[3,4-b]pyridin-4-yl)-2-(5-fluoropyridin-2-yl)-6-methyl-6-(trifluoromethyl)-6,7-dihydro-4H-pyrazolo[5,1-c][1,4]oxazine]

- IC50 [1]: 894 nM
- IC50 [2]: 22 nM
SMILES: CCn1ncc2cc(-c3c(-c4ccc(F)cn4)nn4c3CCC4)cnc21 [Example 223, 1-Ethyl-5-(2-(5-fluoropyridin-2-yl)-5,6-dihydro-4H-pyrrolo[1,2-b]pyrazol-3-yl)-1H-pyrazolo[3,4-b]pyridine]

- IC50 [1]: 65 nM
- IC50 [2]: 5 nM
SMILES: Fc1ccc(-c2nn3c(c2-c2ccnc4[nH]ncc24)CCC2C3C2(F)F)nc1 (racemic) [Example 58, (Racemic) 6,6-Difluoro-2-(5-fluoropyridin-2-yl)-3-(1H-pyrazolo[3,4-b]pyridin-4-yl)-5,5a,6,6a-tetrahydro-4H-cyclopropa[e]pyrazolo[1,5-a]pyridine]

- IC50 [1]: 557 nM
- IC50 [2]: 19 nM
SMILES: CC[C@@H]1Cn2nc(-c3ccc(F)cn3)c(-c3ccnc4[nH]ncc34)c2CO1 (single isomer, unassigned) [Example 95, (*R)-6-Ethyl-2-(5-fluoropyridin-2-yl)-3-(1H-pyrazolo[3,4-b]pyridin-4-yl)-6,7-dihydro-4H-pyrazolo[5,1-c][1,4]oxazine]

- IC50 [1]: 79 nM
- IC50 [2]: 11 nM
SMILES: Cc1cc(-c2c(-c3ccc(F)cc3)nn3c2CC(F)(F)CC3)c2cn[nH]c2n1 [Example 47, 4-(5,5-Difluoro-2-(4-fluorophenyl)-4,5,6,7-tetrahydropyrazolo[1,5-a]pyridin-3-yl)-6-methyl-1H-pyrazolo[3,4-b]pyridine]

- IC50 [1]: 34 nM
- IC50 [2]: 3 nM
SMILES: [2H]C([2H])([2H])OC[C@]1(F)CCc2c(-c3cc(C)nc4[nH]ncc34)c(-c3ccc(F)cn3)nn2C1 (single isomer, unassigned) [Example 310, (*S)-4-(6-Fluoro-2-(5-fluoropyridin-2-yl)-6-((methoxy-d3)methyl)-4,5,6,7-tetrahydropyrazolo[1,5-a]pyridin-3-yl)-6-methyl-1H-pyrazolo[3,4-b]pyridine]

- IC50 [1]: 22 nM
- IC50 [2]: 2 nM
SMILES: Fc1ccc(-c2nn3c(c2-c2c(F)cnc4[nH]ncc24)CCC2(C3)CC2(F)F)nc1 (single isomer, unassigned) [Example 330, (*R)-2,2-Difluoro-3′-(5-fluoro-1H-pyrazolo[3,4-b]pyridin-4-yl)-2′-(5-fluoropyridin-2-yl)-4′,5′-dihydro-7′H-spiro[cyclopropane-1,6′-pyrazolo[1,5-a]pyridine]]
